In US11666517B2, “Antimicrobial composition” (Firmenich SA, priority 2016, dated 2023):
Like-named read-outs stand apart in the source and are kept apart here.

Legend:
S. aureus DSMZ 1104 = assay: Fractional Inhibitory Concentration Index (FIC) / MIC, 96-well broth dilution of ingredient combinations; format: cell-based, Staphylococcus aureus; conditions: for MIC: Staphylococcus aureus, DSMZ1104, 24 h, read-out: Concentration of ingredient alone (Minimal Inhibitory Concentration, MIC alone); for FIC: ingredient alone at its MIC
Description: (§1) The method below allows evaluating antimicrobial activity of different raw materials in combination. The Fractional Inhibitory Concentration Index (FIC Index) is a measure of activity (Garcia L. S., Clinical Microbiology Procedures Handbook, pg. 140-162, 3rd Edition (2010), ASM Press, Washington D.C.) and is calculated according to the formula below:
(§2) [formula] where (MICA alone) and (MICB alone) are the Minimal Inhibitory Concentrations (MIC) of individual ingredients A and B when used in isolation, respectively; whereas (MICA combination) and (MICB combination) are the Minimal Inhibitory Concentrations of materials A and B when tested in combination. Ingredient A corresponds to nona-2,6-dien-1-ol and ingredient B stands for 3-neopentylpyridine, 2-methylhexan-3-one oxime, terpineol or 2-isopropyl-5-methylphenol.
(§3) The Minimal Inhibitory Concentration of a material is defined as the lowest concentration of an agent which can inhibit visible bacterial growth (CLSI M08-A8 Methods for dilution Antimicrobial Susceptibility Test for Bacteria That Grow Aerobically; Approved Standard-Eighth Edition).
(§4) Bacterial suspensions of E. coli DSMZ 1103 and S. aureus DSMZ 1104 were prepared as follows: a frozen stock aliquot was streaked on a Tryptic Soy Agar plate, which was then incubated at 37° C. for 24 hours. A single bacterial colony was picked and inoculated into 50 ml of Mueller Hinton Broth contained in a 100 ml-flask. Incubation was performed overnight at 37° C., under agitation (160 rpm). The following day, the overnight culture was diluted into 50 ml of fresh Mueller Hinton Broth at 1:50 and 1:100 for S. aureus and E. coli, respectively. Growth at 37° C. was continued as described above until the absorbance measured at 600 nm reached 0.7-0.9 and 0.3-0.45 for S. aureus and E. coli, respectively. At this point, cells were harvested by centrifugation (10 min—5000×g—4° C.) and suspended in fresh Mueller Hinton Broth at a concentration of 1×10^8 CFU/ml.
(§5) Solutions of raw materials under evaluation (ingredients A and B) were prepared in ethanol and then serially diluted in the desired concentration into 96-well microtiter plates (10 μl per well). Columns 1, 10, 11 and 12 received only 10 μl ethanol without any testing material. The final concentration of ethanol was 5% w/v for all wells.
(§6) Then, 90 μl of cell suspension as prepared above were added to each well of the microtiter plate, with the exception of column 12 which received 90 μl of Mueller Hinton Broth. The final volume of each well was brought to 200 μl with Mueller Hinton Broth. Each plate was sealed and incubated at 37° C. for 24 hours, under agitation (160 rpm). After incubation, plate reading was performed visually by recording wells with visible bacterial growth. Each combination of materials was tested in triplicate. Turbidity due to potential precipitation of raw materials was taken into account by scoring plates containing identical raw material concentrations, without bacteria.

E. coli DSMZ 1103 [1] = assay: as above; format: cell-based, Escherichia coli; conditions: for MIC: Escherichia coli, DSMZ1103, 24 h, read-out: Concentration of ingredient alone (Minimal Inhibitory Concentration, MIC alone); for FIC: ingredient alone at its MIC
Description: as §1, §2, §3, §4, §5, §6

E. coli DSMZ 1103 [2] = assay: BCT test in 50% liquid soap base; format: cell-based, Escherichia coli; conditions: Table 21: single material 0.3% in 50% liquid soap base, contact time 45 sec
Description: Bacterial solutions of the two strains, E. coli DSMZ 1103 and S. aureus DSMZ 1104, were prepared for BCT test as follows. Stock cultures stored at −80° C. were sub-cultured onto Tryptic Soy Agar (TSA) agar plate media, and incubated at 37° C. for 24 h to obtain single colonies. Single colonies of the primary cultures were streaked onto TSA slant and incubate it at 37° C. incubator for 24 h. Bacterial lawns of the slant culture were collected in PBS buffer to make suspensions with the target level of 1-5×10^8 CFU/mL. The 1:100 dilution of each cell suspension in PBS buffer was used as the bacterial solutions for the BCT test.
Test samples of base with synergistic binary mixtures were prepared as follows. Raw materials of the synergistic binary mixtures (Table 17) were mixed with the liquid soap base PGK-10-003 (Table 18). Aliquots (2.5 g) of each mixture were weighed into 20 ml glass tube with a stirrer bar, and added with equal amount of MilliQ water to make 50% suspension as the test samples for the BCT test.
BCT tests were performed in the 20 ml sample tubes. Each sample tube with 5 g of 50% sample suspension was placed onto a magnetic stirrer, and an aliquot of bacterial solution (100 μl) was added to the sample and allowed for a contact of 45 sec during mixing. Then aliquots (0.5 ml) of the mixture were transferred into 5 ml PBS, and further serial dilutions were made in 4.5 ml PBS. Aliquots (0.5 ml) of PBS dilutions were plated onto duplicate plates of TSA plates using the pour plate method. TSA plates were incubated at 37° C. for 48 h. After incubation, colonies on TSA plates were enumerated and log reduction of each sample were calculated against the CFU counts of the control sample (MilliQ water).

C. xerosis ATCC 373 = assay: BCT test in 90% roll-on deodorant base; format: cell-based, Corynebacterium xerosis; conditions: Table 25: single material 0.216% in 90% roll-on deodorant base, contact time 120 sec
Description: Bacterial solution of C. xerosis ATCC 373 strain was prepared for BCT test as follows. Stock cultures stored at −80° C. were subcultured onto Tryptic Soy Agar media with 0.5% Tween 80 (TSA-TW80), and incubated at 37° C. for 48 h. The primary cultures were subcultured onto TSA-TW80 again to prepare the secondary cultures. Single colonies of secondary culture were inoculated into 30 ml of Brain Heart Infusion (BHI) broth with 0.5% Tween 80 (BHI-TW80), and incubated at 37° C. 180 rpm for 24 h. Aliquots (1 ml) of the 24 h culture were inoculated into 30 ml of fresh BHI-TW80 broth, and incubated at 37° C. 180 rpm for 48 h. Aliquots (2-3 ml) of the 48 h culture were inoculated into four 50 ml of fresh BHI-TW80 broth medium, and incubated at 37° C. 180 rpm for 4-6 hrs. When the OD reached the target value of 1.6, cells were harvested by centrifugation at 5000 rpm for 10 min, and then resuspended in the same fresh broth media to a target concentration of 10^9 to 10^10 cfu/mL. This suspension was used as the bacterial solution for the BCT test.
Test samples of base with synergistic binary mixtures were prepared as follows. Raw materials of the synergistic binary mixtures were weighed (Table 22), and mixed with 0.3 g PEG-40 Hydrogenated Castor Oil and 9.57 g deodorant roll on base (Table 23).
BCT tests were performed in 15 ml sample tubes. Aliquots (0.9 g) of each sample were weighed into the tube, and an aliquot of bacterial solution (100 μl) was added to the sample and allowed for a contact time of 120 sec with constant mixing. At the end of the contact time, aliquots (9 ml) of BHI broth were added to the tube. The suspensions were mixed well by vortexing, and further 1:10 serial dilutions were made in […] BHI. Aliquots (1 ml) of BHI dilutions were plated onto duplicate plates of TSA-TW80 using pour plate methods. TSA-TW80 plates were incubated at 37° C. for 2-3 days. After incubation, colonies on TSA-TW80 plates were enumerated and log reduction of each sample were calculated against the CFU counts of the control sample (BHI).

[3] = ingredient used in isolation, other ingredient 0 ppm, 37° C., 24 hours

Row | Compound | MIC (S. aureus DSMZ 1104; [3]) [µg/mL] | FIC (S. aureus DSMZ 1104; other ingredient 0 ppm) | MIC (E. coli DSMZ 1103 [1]; [3]) [µg/mL] | FIC (E. coli DSMZ 1103 [1]; other ingredient 0 ppm) | MIC (E. coli DSMZ 1103 [1]) [µg/mL] | MIC (S. aureus DSMZ 1104) [µg/mL] | Average log reduction ± SEM (n = 2) (E. coli DSMZ 1103 [2]) [log] | Log reduction (C. xerosis ATCC 373) [log]
1 | CCCC(=NO)C(C)C [2-methylhexan-3-one oxime] | 4800 | 1.00 | – | – | – | – | – | –
2 | CC(C)[C@H]1CC[C@@H](CO)CC1 [cis-4(Isopropyl)cyclohexanemethanol] | – | – | 9600 | 1.000 | – | – | – | –
3 | O=Cc1ccc2c(c1)OCO2 [1,3-Benzodioxole-5-carbaldehyde] | – | 1.00 | – | 1.000 | 1200 | 1200 | – | –
4 | Cc1ccc(C(C)C)c(O)c1 [2-isopropyl-5-methylphenol] | – | – | 600 | 1.000 | – | – | 0.4 ± 0.0 | 6.0
5 | COc1ccc(C=O)cc1 [4-Methoxybenzaldehyde] | – | 1.00 | 1200 | 1.000 | – | – | – | –
6 | CC(C)=CCCC(C)=CCO (stereo in doubt) [(Z)-3,7-Dimethyl-2,6-octadien-1-ol] | – | – | 1200 | 1.000 | – | – | – | –
7 | CC/C=C\CC/C=C/CO [(2E,6Z)-nona-2,6-dien-1-ol] | – | 1.00 | – | 1.000 | – | – | 0.3 ± 0.2 | 5.7
8 | CC1=CCC(C(C)(C)O)CC1 (stereo not drawn) [α-terpineol] | 1200 | – | – | – | – | – | – | –
9 | CC(C)(C)Cc1cccnc1 [3-neopentylpyridine] | – | 1.00 | 600 | 1.000 | – | – | 0.3 ± 0.2 | 5.9
